20 molecules from US5466718A, “Tyrosinase inhibitors” (Takasago Institute for Interdisciplinary, priority 1993, dated 1995) can be followed below.

≈ marks a conversion by molar mass, not a printed value. Structures can show the parent of a compound that is named as a salt.

What is called inhibition is the share of the control response that was lost under treatment. Lower therefore signals a weak effect. What is called IC50 is the concentration that gives 50% inhibition.

Test [1] concerns Mouse melanoma cell line (ATCC CRL 6322). Nature of the test: Melanin formation inhibition in melanoma cells. It is filed as cell-based. Particulars: for inhibition at 250 µM: 0.25 mM; for inhibition at 500 µM: 0.5 mM. How it is done: Inhibitory effects on the melanin formation in melanoma cells were tested by the following procedure. Results obtained are shown in Table 5, together with the results obtained with arbutin as a control.
Mouse melanoma cell line (ATCC CRL 6322) was maintained in MEM medium (GIBCO BR, Gaitherburg, Md.) supplemented with 10% heat-inactivated fetal bovine serum described by Maeda (J. Cosmet. Chem., 42, 361 (1991)). More specifically, the cells were cultured on 6-well tissue culture plates (Falcon 3046) with various concentrations of each test compound listed in Table 5 below at 37° C., and at a humidity of 98%, in 5% carbon dioxide atmosphere for 4 days. Cell viability in all tests was determined by Trypan Blue exclusion. The culture media were aspirated, and 1.0 ml of an aqueous 0.25% trypsin solution and an aqueous 0.2% ethylenediaminetetraacetic acid (EDTA) solution were added to each well. Detached cells were placed in an Eppendorf tube, and centrifuged at 1,000 rpm for 5 minutes. The cell pellets thus obtained were mixed with 5% trichloroacetic acid, agitated well, and centrifuged 10,000 rpm to deposit melanin. The melanin pellets were mixed with 1N NaOH for dissolution, and the absorbance at 475 nm was measured, from which melanin formation inhibition (%) was calculated.

In another test the target is mushroom tyrosinase. Kind of test: Tyrosinase inhibition (mushroom tyrosinase, L-DOPA, dopachrome absorbance at 475 nm). The format is biochemical. Particulars: pH 6.8, 22° C., L-DOPA substrate; concentration with 40 to 60% inhibition in a minimum of two trials taken as IC50. How it is done: Inhibition tests were carried out using aqueous solvents. Saturated stock solutions were prepared by at least 48 hours before the tests were run, which were diluted appropriately upon use in order to increase the solubilities in the aqueous solvents of the lipophilic test compounds.
Tests were carried out according to conventional procedure as follows. That is, 0.01 to 0.02 ml of a mushroom tyrosinase solution (1,375 U/ml, Sigma Chemical Co.), 0.98 to 0.99 ml of a 0.07M phosphate buffer solution (pH 6.8) and 1 ml of a test solution with or without a test compound listed in Table 2 were mixed, and the resulting mixture was incubated at 22° C. for 8 minutes. Then, 1 ml of a 0.03% aqueous solution of I-DOPA (L-3,4-dihydroxyphenylalanine having a purity of 99%, Sigma Chemical Co.) was added thereto. After incubation at 22° C. for 2 minutes, the amount of dopachrome in the reaction mixture was measured as absorbance (optical density) at 475 nm. The change in absorbance with or without different test samples was monitored every 30 seconds for the following 2.5 minutes using a Beckman DU-64 spectrophotometer (Beckman, Palo Alto, Calif.).
Each test compound was repeatedly tested until the 50% inhibitory concentration (IC50) (μg/ml) was determined.
The percent inhibition was calculated according to the following equation: [formula] where A=Absorbance
^A final=Final absorbance
^A initial=Initial absorbance

The test system of the next test is tyrosinase. Kind of test: Tyrosinase inhibition (long exposure), melanin formation from L-tyrosine. It is filed as biochemical. The following applies: test solution 200 μg/ml, pH 6.8, 37° C., L-tyrosine substrate. How it is done: Tyrosinase inhibitory effects of the active compounds of this invention on long exposure were determined using […]. The method of Chen et al. (J. Agric. Food Chem., 39, 8, 1991) was adapted and scaled down for spectrophotometric analysis on a Bio Rad Model 3550 Microplate Reader (Bio-Rad, Richmond, Calif.), which uses 96-well plates. 20 μl of tyrosinase solution containing 0.02 mg/ml of tyrosinase (Sigma Chemical Company) and 76 μl of a test solution of citronellol, geraniol, or farnesol, adjusted to 200 μg/ml with a phosphate buffer solution (pH 6.8) were added to each well. After incubation at 37° C. for 8 minutes, 1 mM L-tyrosine (Sigma Chemical Company) was added as a substrate. Absorbance at 490 nm was measured every 60 seconds for up to 120 minutes to determine how much the amount of melanin produced from tyrosine substrate decreased as a result of the tyrosinase inhibition.

The mark [2] stands for this setting: Mus musculus, 96 h, 4 days, 37° C.

Molecule `OC[C@H]1O[C@@H](Oc2ccc(O)cc2)[C@H](O)[C@@H](O)[C@@H]1O` [Arbutin, reference compound] displayed an inhibition at 125 µM in test [1] (Mus musculus, 96 h, 0.125 mM, 4 days, 37° C.) of 58%. This molecule also displayed an inhibition at 250 µM in test [1] (setting [2]) of 53%. Besides, the “melanin formation inhibition in melanoma cells” value in test [1] (summary of Table 5, aqueous system) was “exhibited higher inhibitory effects than the active compounds of the present invention”. At mushroom tyrosinase, this molecule returned a half-maximal inhibitory concentration (IC50) of 63 µg/mL (≈ 231 µM).

For `CC(C)=CCCC(C)CC=O` (centres unmarked) [Citronellal], the 50% inhibitory concentration (IC50) against mushroom tyrosinase is 9.4 µg/mL (≈ 60.9 µM). With `CC(C)=CCCC(C)CCO` (centres unmarked) [Citronellol], the “Inhibition Ratio (%) on Melanin Formation” value (“Inhibition Ratio (%)” for short) came out at 0% in the test with tyrosinase (0 minute), 39.6% in the test on tyrosinase (30 minute) and 43.8% in the test on tyrosinase (120 minute). For the same molecule, the inhibition at 250 µM in test [1] (setting [2]) came to 25%. Moreover, the inhibition at 500 µM in test [1] (setting [2]) was 25%. Also, on mushroom tyrosinase, the IC50 is 6.3 µg/mL (≈ 40.3 µM). As for `CC(C)=CCCC(C)CC#N` (centres unmarked) [Citronellyinitrile, citronellylnitrile], the IC50 at mushroom tyrosinase is 9.4 µg/mL (≈ 62.1 µM).

In the case of `CC(=O)OCCC(C)CCC=C(C)C` (centres unmarked) [Citronellyl acetate], the half-inhibitory concentration (IC50) on mushroom tyrosinase turned out to be 18.8 µg/mL.

Consider `CC(C)=CCCC(C)CCOC(=O)c1ccccc1` (centres unmarked) [Citronellyl benzoate], for which the IC50 against mushroom tyrosinase amounted to 6.3 µg/mL (≈ 24.2 µM). Same read-out and setting: to `CCCC(=O)OCCC(C)CCC=C(C)C` (centres unmarked) [Citronellyl butyrate] belongs 37.5 µg/mL (≈ 166 µM); to `CC(C)=CCCC(C)CCOC=O` (centres unmarked) [Citronellyl formate], 6.3 µg/mL. As to `CC(C)=CCCC(C)CCOC(=O)C(C)C` (centres unmarked) [Citronellyl isobutyrate], in test [1] (setting [2]), at 250 µM the inhibition was 31% and the inhibition at 500 µM turned out to be 56%. This molecule also returned a 50% inhibitory concentration (IC50) on mushroom tyrosinase of 6.3 µg/mL (≈ 27.8 µM). `CCC(=O)OCCC(C)CCC=C(C)C` (centres unmarked) [Citronellyl propionate] showed an IC50 against mushroom tyrosinase of 12.5 µg/mL (≈ 58.9 µM). For the molecule `CCCCCCCCCCO` [Decanol], the IC50 at mushroom tyrosinase amounted to 12.5 µg/mL (≈ 79 µM). Still for that read-out and setting: to `C=CC(C)CCCC(C)(C)O` (centres unmarked) [Dihydromyrcenol] belongs 12.5 µg/mL (≈ 80 µM). Consider `CC(C)=CCCC(C)=CCCC(C)=CCO` [Farnesol], for which the “Inhibition Ratio (%)” value with tyrosinase (0 minute) was found to be 0%; in the test with tyrosinase (30 minute), 23.6%; in the test with tyrosinase (120 minute), 31.9%. The molecule further returned an IC50 against mushroom tyrosinase of 12.5 µg/mL (≈ 56.2 µM). In the case of `CC(C)=CCCC(C)=CCCC(C)=CCOC(=O)c1ccccc1` [Farnesyl benzoate], the concentration for half-maximal inhibition (IC50) against mushroom tyrosinase worked out at 25.0 µg/mL (≈ 76.6 µM). In the case of `CC(C)=CCCC(C)=CCCC(C)=CCOC(=O)C(C)C` [Farnesyl isobutyrate], on mushroom tyrosinase, the IC50 stood at 12.5 µg/mL (≈ 42.7 µM). Same read-out and setting: the value for `CC(C)=CCCC(C)=CCCC(C)=CCOC(=O)Cc1ccccc1` [Farnesyl phenylacetate] was 12.5 µg/mL (≈ 36.7 µM).

As to `CC(C)=CCC/C(C)=C/CO` [Geraniol], the figures for the “Inhibition Ratio (%)” value in the test with tyrosinase (0 minute), in the test on tyrosinase (30 minute) and in the test with tyrosinase (120 minute) were 0%, 37.3% and 48.5%, respectively. The molecule also came in with an inhibition at 250 µM in test [1] (setting [2]) of 30%. Besides, 500 µM produced 18% inhibition in test [1] (setting [2]). Further, the concentration for half-maximal inhibition (IC50) against mushroom tyrosinase amounted to 6.3 µg/mL (≈ 40.8 µM). At mushroom tyrosinase, `CC(C)=CCC/C(C)=C/COC(=O)C(C)C` [Geranyl isobutyrate] gave an IC50 of 12.5 µg/mL (≈ 55.7 µM).

With `C=CC(C)(O)CCC=C(C)CCC=C(C)C` (centres unmarked) [Nerolidol], on mushroom tyrosinase, the 50% inhibitory concentration (IC50) amounted to 12.5 µg/mL (≈ 56.2 µM). On the same count and under the same terms, the value for `CCCCCCCCO` [Octanol] was 12.5 µg/mL (≈ 96 µM).
